# Molecular target: T1, human CD39 (Homo sapiens, UniProt P49961)
# T1 sequence (P49961 1-510): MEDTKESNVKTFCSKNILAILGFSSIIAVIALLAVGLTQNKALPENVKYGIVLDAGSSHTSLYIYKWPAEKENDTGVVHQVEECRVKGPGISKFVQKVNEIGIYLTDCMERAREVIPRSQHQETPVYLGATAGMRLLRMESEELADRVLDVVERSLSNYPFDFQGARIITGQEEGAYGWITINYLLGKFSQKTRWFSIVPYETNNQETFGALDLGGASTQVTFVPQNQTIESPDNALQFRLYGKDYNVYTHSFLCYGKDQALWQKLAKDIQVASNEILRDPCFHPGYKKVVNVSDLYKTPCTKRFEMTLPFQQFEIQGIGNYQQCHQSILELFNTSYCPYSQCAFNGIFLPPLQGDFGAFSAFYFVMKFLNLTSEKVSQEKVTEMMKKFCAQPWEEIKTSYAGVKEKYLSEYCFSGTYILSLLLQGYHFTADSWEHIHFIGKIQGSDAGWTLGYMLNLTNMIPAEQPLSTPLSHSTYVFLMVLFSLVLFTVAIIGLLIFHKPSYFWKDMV
# Assay: Fluorescence capillary electrophoresis assay for CD39
# Format: biochemical
# Parameters: Human umbilical cord membrane preparations (250 ng) natively expressing high amounts of CD39; from tissue; host or cells: human umbilical cord membranes
# Details: fluorescent substrate PSB-017621A 0.5 µM; human umbilical cord membrane preparation; n = 3; Cheng-Prusoff; read-out: Ki ± SEM
# Description: They were minced and homogenized with a polytron in 95 mM NaCl, 0.1 mM phenylmethylsulfonyl fluoride (PMSF), and 45 mM Tris solution, pH 7.6. […] The pellets were resuspended in 5 mM Tris buffer solution, pH 8.0 and 10% glycerol. All purification steps were performed at 4°C. The preparations were kept at −80°C.
# For inhibition screening, three independent experiments were performed. […] The reaction buffer contained 10 mM HEPES, 2 mM CaCl2, 1 mM MgCl2, pH 7.4. The samples were incubated at 37°C for 4 min, and the enzymatic reaction was terminated by heating at 90°C for 5 min. The solution was then diluted 1:20 with reaction buffer to perform separation of nucleotides by capillary electrophoresis (CE) followed by laser-induced fluorescence (LIF) detection. […] Three independent experiments were performed, and curves were calculated by GraphPad Prism 8 software (GraphPad software, San Diego, CA, USA).
# Analysis was carried out using a P/ACE MDQ capillary electrophoresis system (Beckman Instruments, Fullerton, CA, USA). The separation was performed in a polyacrylamide-coated capillary [30 cm (10 cm effective length) × 50 µm (id), × 360 µm (od)]. Before each run, the capillary was rinsed with the background electrolyte [50 mM phosphate buffer (pH 6.5)] for 1 min at 30 psi. Samples were electrokinetically injected by applying a voltage of -6 kV for 30 s at the capillary outlet, and the fluorescent nucleotide derivatives were separated by voltage application of -15 kV. […] Data collection and peak area analysis were performed by the P/ACE MDQ software 32 KARAT obtained from Beckman Coulter (Fullerton, CA, USA).
structure (smiles),measurement,value
"CCCCNc1nc2c(NC)ncnc2n1[C@@H]1O[C@H](COP(=O)(O)OP(=O)(O)C(Br)(Br)P(=O)(O)O)[C@@H](O)[C@H]1O [Compound 33, (Dibromo((((((2R,3S,4R,5R)-5-(8-(butylamino)-6-(methylamino)-9H-purin-9-yl)-3,4-dihydroxy-tetrahydrofuran-2-yl)methoxy)(hydroxy)phosphoryl)oxy)-(hydroxy)phosphoryl)methyl)-phosphonic Acid]",Ki,1510 ± 400 nM

# From publication PMC7508162 (Frontiers in Pharmacology, 2020)
